PMC11111408, “Concurrent inhibition of oncogenic and wild-type RAS-GTP for cancer therapy” (Nature, 2024)
Values joined by “and” are separate entries in the source; they are usually repeats but may differ in a detail not shown here. Equal values may be shown once.

Experiments:
[1] = target: KRAS^Q61H (Homo sapiens, UniProt P01116+P62937, Q61H); experiment: Cellular RAS–CYPA binding (tri-complex formation), nano-BRET in U2OS cells; type: cell-based; set-up: expressed in transfected cells; host or cells: U2OS or U2OS PPIA-KO; settings: (95% CI)
From the text: (§1) KRAS4B, or other small GTPases, containing the indicated mutations were cloned in pNLF-N or pHTN plasmids for expression with an N-terminal nanoluciferase or HaloTag fusion, respectively. […] The following day, the cells were collected by Trypsin and reseeded in a white tissue culture-treated 96-well plate in OptiMem phenol red-free medium (Gibco) containing 4% FBS and a 1:1,000 dilution of NanoBRET 618 HaloTag ligand (Promega). For endpoint concentration response curves, vivazine nanoluciferase substrate was added to 1× concentration in OptiMem phenol red-free medium with 4% FBS. Varying concentrations of inhibitor were added and incubated for 1 or 4 h before the nano-BRET signal was measured on a Perkin Elmer Envision plate reader. For kinetic assays, endurazine nanoluciferase substrate was used in place of vivazine, and the plate was placed in a Cytation5 multi-mode reader pre-equilibrated to 37 °C and 5% CO2.

[2] = target: KRAS^G12A (Homo sapiens, UniProt P01116+P62937, G12A); experiment: as above; type: cell-based; set-up: expressed in transfected cells; host or cells: U2OS or U2OS PPIA-KO; settings: (95% CI)
From the text: as §1

[3] = system: NCI-H358 and MIA PaCa-2 cells expressing RTK constructs; experiment: pERK (MSD) in NCI-H358 and MIA PaCa-2 cells expressing exogenous RTK or RTK fusion constructs; type: cell-based, human

CCn1c(-c2cc(N3CCN(C4CC4)CC3)cnc2[C@H](C)OC)c2c3cc(ccc31)-c1csc(n1)C[C@H](NC(=O)[C@H]1[C@@H]3COC[C@@H]31)C(=O)N1CCC[C@H](N1)C(=O)OCC(C)(C)C2 [RMC-7977]
EC50 [1]: 5.75 nM | EC50 [2]: 4.91 nM | pERK inhibition in MiaPaCa2 RTK fusion overexpression cells treated with RMC-7977 ([3]; CCDC6-RET, RMC-7977 0.046 nM): 114.81 and 112.21 and 120.39 | pERK inhibition in MiaPaCa2 RTK fusion overexpression cells treated with RMC-7977 ([3]; CCDC6-RET, RMC-7977 0.412 nM): 62.51 and 66.85 and 62.20 and 56.39 | pERK inhibition in MiaPaCa2 RTK fusion overexpression cells treated with RMC-7977 ([3]; CCDC6-RET, RMC-7977 1.235 nM): 40.55 and 38.10 and 39.55 and 34.25 | pERK inhibition in MiaPaCa2 RTK fusion overexpression cells treated with RMC-7977 ([3]; CCDC6-RET, RMC-7977 3.704 nM): 15.40 and 16.48 and 16.06 and 15.78 | pERK inhibition in MiaPaCa2 RTK fusion overexpression cells treated with RMC-7977 ([3]; CCDC6-RET, RMC-7977 11.111 nM): 5.99 and 6.04 and 6.20 and 6.24 | pERK inhibition in MiaPaCa2 RTK fusion overexpression cells treated with RMC-7977 ([3]; CCDC6-RET, RMC-7977 33.333 nM): 4.07 and 4.10 and 4.14 and 4.22 | pERK inhibition in MiaPaCa2 RTK fusion overexpression cells treated with RMC-7977 ([3]; CCDC6-RET, RMC-7977 100.000 nM): 3.63 and 3.37 and 3.48 and 3.54 | pERK in NCI-H358 RTK overexpression cells treated with RMC-7977 ([3]; EGFR WT, RMC-7977 0.0152 nM): 104.75 and 140.08 | pERK inhibition in H358 RTK overexpression cells ([3]; EGFR WT, RMC-7977 0.0152 nM): 88.81 and 100.67 | pERK in NCI-H358 RTK overexpression cells treated with RMC-7977 ([3]; EGFR WT, RMC-7977 0.0457 nM): 101.07 and 109.46 | pERK inhibition in H358 RTK overexpression cells ([3]; EGFR WT, RMC-7977 0.0457 nM): 80.53 and 78.65 | pERK in NCI-H358 RTK overexpression cells treated with RMC-7977 ([3]; EGFR WT, RMC-7977 0.41 nM): 70.68 and 81.35 | pERK inhibition in H358 RTK overexpression cells ([3]; EGFR WT, RMC-7977 0.41 nM): 58.96 and 57.93 | pERK inhibition in H358 RTK overexpression cells ([3]; EGFR WT, RMC-7977 3.70 nM): 13.20 and 12.44 | pERK inhibition in H358 RTK overexpression cells ([3]; EGFR WT, RMC-7977 11.11 nM): 5.97 and 5.02 | pERK in NCI-H358 RTK overexpression cells treated with RMC-7977 ([3]; EGFR WT, RMC-7977 33.33 nM): 1.98 and 1.90 | pERK inhibition in H358 RTK overexpression cells ([3]; EGFR WT, RMC-7977 33.33 nM): 3.17 and 3.29 | pERK in NCI-H358 RTK overexpression cells treated with RMC-7977 ([3]; EGFR WT, RMC-7977 100.00 nM): 1.18 and 1.21 | pERK inhibition in H358 RTK overexpression cells ([3]; EGFR WT, RMC-7977 100.00 nM): 3.04 and 2.54 | pERK in NCI-H358 RTK overexpression cells treated with RMC-7977 ([3]; EGFR WT, RMC-7977 300.00 nM): 1.43 and 1.37 | pERK inhibition in H358 RTK overexpression cells ([3]; EGFR WT, RMC-7977 300.00 nM): 2.79 and 3.22 | pERK inhibition in MiaPaCa2 RTK fusion overexpression cells treated with RMC-7977 ([3]; EML4-ALK, RMC-7977 0.412 nM): 51.66 and 62.71 and 69.43 | pERK inhibition in MiaPaCa2 RTK fusion overexpression cells treated with RMC-7977 ([3]; EML4-ALK, RMC-7977 1.235 nM): 29.82 and 34.96 and 36.22 | pERK inhibition in MiaPaCa2 RTK fusion overexpression cells treated with RMC-7977 ([3]; EML4-ALK, RMC-7977 3.704 nM): 13.53 and 15.19 and 15.47 | pERK inhibition in MiaPaCa2 RTK fusion overexpression cells treated with RMC-7977 ([3]; EML4-ALK, RMC-7977 11.111 nM): 5.91 and 5.92 and 5.79 | pERK inhibition in MiaPaCa2 RTK fusion overexpression cells treated with RMC-7977 ([3]; EML4-ALK, RMC-7977 100.000 nM): 3.46 and 3.15 and 3.05 | pERK in NCI-H358 RTK overexpression cells treated with RMC-7977 ([3]; FGFR2, RMC-7977 0.0152 nM): 105.65 | pERK inhibition in H358 RTK overexpression cells ([3]; FGFR2, RMC-7977 0.0152 nM): 106.96 | pERK in NCI-H358 RTK overexpression cells treated with RMC-7977 ([3]; FGFR2, RMC-7977 0.0457 nM): 88.22 | pERK inhibition in H358 RTK overexpression cells ([3]; FGFR2, RMC-7977 0.0457 nM): 111.13 | pERK in NCI-H358 RTK overexpression cells treated with RMC-7977 ([3]; FGFR2, RMC-7977 0.41 nM): 48.78 | pERK inhibition in H358 RTK overexpression cells ([3]; FGFR2, RMC-7977 0.41 nM): 65.30 | pERK inhibition in H358 RTK overexpression cells ([3]; FGFR2, RMC-7977 3.70 nM): 17.67 | pERK inhibition in H358 RTK overexpression cells ([3]; FGFR2, RMC-7977 11.11 nM): 6.99 | pERK in NCI-H358 RTK overexpression cells treated with RMC-7977 ([3]; FGFR2, RMC-7977 33.33 nM): 3.56 | pERK inhibition in H358 RTK overexpression cells ([3]; FGFR2, RMC-7977 33.33 nM): 3.76 | pERK in NCI-H358 RTK overexpression cells treated with RMC-7977 ([3]; FGFR2, RMC-7977 100.00 nM): 2.34 | pERK inhibition in H358 RTK overexpression cells ([3]; FGFR2, RMC-7977 100.00 nM): 2.57 | pERK in NCI-H358 RTK overexpression cells treated with RMC-7977 ([3]; FGFR2, RMC-7977 300.00 nM): 1.90 | pERK inhibition in H358 RTK overexpression cells ([3]; FGFR2, RMC-7977 300.00 nM): 2.56 | pERK inhibition in MiaPaCa2 RTK fusion overexpression cells treated with RMC-7977 ([3]; FGFR3-TACC3, RMC-7977 0.412 nM): 52.00 and 53.38 and 52.06 and 52.75 | pERK inhibition in MiaPaCa2 RTK fusion overexpression cells treated with RMC-7977 ([3]; FGFR3-TACC3, RMC-7977 1.235 nM): 23.92 and 29.24 and 28.51 and 28.89 | pERK inhibition in MiaPaCa2 RTK fusion overexpression cells treated with RMC-7977 ([3]; FGFR3-TACC3, RMC-7977 3.704 nM): 15.09 and 13.49 and 14.38 and 14.06 | pERK inhibition in MiaPaCa2 RTK fusion overexpression cells treated with RMC-7977 ([3]; FGFR3-TACC3, RMC-7977 11.111 nM): 7.76 and 6.95 and 7.39 and 7.30 | pERK inhibition in MiaPaCa2 RTK fusion overexpression cells treated with RMC-7977 ([3]; FGFR3-TACC3, RMC-7977 33.333 nM): 4.29 and 4.25 and 4.22 | pERK inhibition in MiaPaCa2 RTK fusion overexpression cells treated with RMC-7977 ([3]; FGFR3-TACC3, RMC-7977 100.000 nM): 3.04 and 3.39 and 3.61 and 3.12 | pERK in NCI-H358 RTK overexpression cells treated with RMC-7977 ([3]; GFP, RMC-7977 0.0152 nM): 115.00 and 107.70
